For assay [1], the system named is fatty streak lesions in rabbits on high fat diet. The assay is classed as in vivo, rabbit. The conditions noted are these: for TC/HDL-C: Atorvastatin group. As for the experimental part: The rabbits were fasted for 12 hrs before the beginning of the experiments. Blood parameters were then tested as the normal level of plasma indicators. A total of 52 rabbits were purchased at different time, four of them were used as normal control and fed with normal diet the whole time during the experiments. […] Plasma concentrations of total cholesterol (TC), […] (TG), low density lipoprotein-cholesterol (LDL-C), very low density lipoprotein-cholesterol (VLDL-C), high density lipoprotein-cholesterol (HDL-C) were quantified by enzymatic assays. TC/HDL-C or ([…] ratios were then determined. Animals were sacrificed under deep anesthesia with sodium pentobarbital 25 mg/kg IV. The entire aorta from the aortic valve to the iliac bifurcation was removed from each rabbit and opened longitudinally. […] Atheromatous lesions were measured without staining Atheromatous lesions were manually traced in the photographs, and the percent area of the atheromatous lesions was calculated. Sample of aorta from animals were homogenated. And the content of lipid was determined.

Assay [2] has as its system atherosclerosis in ApoE knock out mouse on high fat diet. An excerpt: 10 ApoE ko mice were fed with regular chow diet and used as negative control group. 50 ApoE ko mice were fed with high fat diet (35% kcal fat, 1% cholesterol) for 8 weeks, and then the plasma samples were collected for lipid profile measurement before the treatment. 50 ApoE ko mice were assigned into 5 groups based on the fasting overnight plasma TC and HDL level.
5.2. Study Timeline: • 23 Dec. 2011: 60 ApoE mice arrived at chempartner and were housed in the animal facility in the building #3 for the acclimation. • 6 Jan. 2012: Measured the body weight for each mouse. 50 mice were fed with high fat diet and 10 mice were fed with normal chow diet. • 2 Mar. 2012: All mice were fasted over night and plasma samples (about 300 ul whole blood) were collected for lipid profile measurement before treatment with RAAS antibody. • 19 Mar. 2012 to 6 Apr. […] 2012: All mice were fasted over night and plasma sample for each mouse (about 300 ul whole blood) was collected for lipid profile measurement after 16 weeks treatment. Blood glucose was also measured for each mouse. • 9 Jul. 2012: The study was terminated after 16 weeks treatment. Measure BW, sacrificed each mouse, dissected the aorta, heart, liver and kidney and fixed them in 4% PFA.
Antibody products were administrated by intraperitoneal injection every two days (Monday, Wednesday, and Friday). and the positive compound was administered by p.o every day.
The body weight was weighed weekly during the period of treatment. The fasting overnight blood glucose was measured at the end of study by Roche glucometer.
About 300 ul of blood sample was collected from the orbital vein for each mouse and centrifuged at 7000 rpm for 5 min at 4E and the plasma lipid profile was measured by Roche Modular automatic biochemistry analyzer in DaAn Medical Laboratory
After RAAS antibody products treatment for 16 weeks, all mice were sacrificed. Measured body weight and collected blood sample for each mouse. Weighed liver weight and saved a tiny piece of liver into 4% paraformaldehyde (PFA) fixation solution for further analysis. At same time, take the photos with heart, lung, aortas and two kidneys.
5.8. Oil Red Staining Procedure: • 1. Sacrificed the mice and dissected the heart, aorta, and arteries under dissecting microscope. • 2. Briefly wash with PBS and fixed in 4% paraformaldehyde (PFA) overnight at 4[…]. • 3. Rinse with 60% isopropanol • 4. Stain with freshly prepared Oil Red O working solution 10 min. • 1). Oil red O stock stain: 0.5% powder in isopropanol • 2). Working solution: dilute with distilled water (3:2) and filter with membrane (0.22 um) • 5. Rinse with 60% isopropanol 10 second. • 6. Dispel the adherent bit fat outside of the aorta under the dissecting microscope. • 7. Cut the vascular wall gently and keep the integrated arteries using the micro scissors. • 8. Unfold the vascular inner wall with the cover slides and fix it by water sealing tablet.
Scanning the glasses slides with the Aperio ScanScope system and analyze with the image proplus software to measure the area of atherosclerotic plaque lesion. The results were expressed as the percentage of the total aortic surface area covered by lesions. The operation procedure of software was briefly described as follow: Converted the sys version photos into JPG version, then calibrated it and subsequently selected the red regions and then calculate the total area automatically by image proplus software.
The results were expressed as the Mean±SEM and statistically evaluated by student's t-test.

Another assay concerns Influenza H1N1 A/WSN/33. The assay is classed as in vivo, BALB/c mice.
Assay [3] has as its system Influenza A/Weiss/43 H1N1 in MDCK cells. Description: microbe, parasite or virus in culture. It is filed as cell-based.
A further assay has as its system 3T3-L1 adipocytes. Kind of assay: Glucose uptake assay. It is filed as cell-based. On the procedure:
Study Protocol • 1. 3T3-L1 fibroblasts were cultured in DMEM containing 25 mM glucose and 10% bovine calf serum at 37 °C with 5% CO2. • 2. 3T3-L1 fibroblasts were differentiated into adipocytes 2 days post confluent with the same DMEM medium containing 1 ug/ml insulin (Sigma-Aldrich), 1 uM dexamethasone (Sigma-Aldrich), and 0.5 mM isobutyl-1-methylxanthine (Sigma-Aldrich). • 3. Media were replaced with DMEM containing 10% FBS and 1 ug/ml insulin and culture 2 days. • 4. Seed 1×10^5 3T3-L1 adipocytes to 96 wells cell culture plate (DMEM, 10% FBS, 1% PS, 1 ug/ml insulin) • 5. Before experiments, adipocytes were incubated in serum free medium for starvation overnight. • 6. Dilute each sample 100 folds (2 ul primal solution to 198 ul buffer) in corresponding buffer. Add 2 ul of sample primal solution, 100 folds diluted solution and buffer to 198 ul KRPH buffer. • 7. 3T3-L1 adipocytes were washed with KRPH buffer (5 mM Na2HPO4, 20 mM HEPES, pH 7.4, 1 mM MgSO4.1 mM CaCl2, 136 mM NaCl, […], and 1% BSA) three times, Add 90 ul/well KRPH containing human insulin and samples to assay plate, incubate for 30 min at 37[…] and 5% CO2. • 8. Add 10 ul KRPH containing 0.25 uCi 1-[3H]-2-deoxyglucose/well and 50 umol/l 2-deoxyglucose and Incubate 10 min in 95% air/5% CO2 at 37[…] • 9. The transport was stopped by rinsing the cells with cold PBS containing 10 mM glucose for three times. • 10. The adipocytes were lysed in 50 ul 10% KOH for 5 min • 11. Then the aliquots were subjected to scintillation counting using TriCap.

The mark [4] stands for this setting: H1N1 + Oseltamivir, dose printed 0.2/0.4 ml/mouse.

Read-outs that look alike come from different tables or passages of the source.

As for `CC(C)c1c(C(=O)Nc2ccccc2)c(-c2ccccc2)c(-c2ccc(F)cc2)n1CC[C@@H](O)C[C@@H](O)CC(=O)O` [Atorvastatin, reference compound], the “lipid con. at dissected aorta” value in assay [1] (Atorvastatin group (n = 4), triglyceride content) was 0.0274 ± 0.006 µmol/mg. The TC/HDL-C is reported as 1.844 in assay [1] (Wk 0 (start of high fat diet)), 4.511 in assay [1] (Wk 10 (before Atorvastatin administration)) and 6.811 in assay [1] (Wk 18 (end of Atorvastatin administration)). In addition, in assay [2] (40 mg/kg, 16 weeks treatment), the liver weight entry is “significantly reduced”. In addition, the TC net change entry in assay [2] (16 week treatment) was “not reduce the TC net change”. The “net change of LDL” value in assay [2] (16 week treatment) is given as “no significant difference in net change of LDL”. In addition, in assay [2] (16 weeks), the “plaque area and percentage of plaque area in total inner vascular area” value is on record as “mild trend to decrease percentage of plaque area”. Further, the “plaque lesion area of aorta” value in assay [2] (16 weeks treatment, atorvastatin 40 mg/kg) was “did not affect the plaque lesion area of aorta”.

`CCOC(=O)C1=C[C@@H](OC(CC)CC)[C@H](NC(C)=O)[C@@H](N)C1` [Osletamivir, Oseltamivir]: in the assay with Influenza H1N1 A/WSN/33 (1 mg/kg orally twice daily for 8 days), the “mice survived to the end of experiment” value was 4 out of 5. In addition, in the assay with Influenza H1N1 A/WSN/33 (setting [4]), the “Mean day to death ± S.D.” value was more than 14 ± 0.0 days and the Survivor/total is 4/4. This compound returned a body weight drop in the assay on Influenza H1N1 A/WSN/33 (mouse, in vivo) of less than 15%. For the same compound, the EC50 in assay [3] (A/Weiss/43 H1N1, MDCK cells, read-out: EC50) was 890 nM. Further, the EC50 in assay [3] (Influenza A/Weiss/43 H1N1 in MDCK cells, MTT after 72 hours, positive control, read-out: anti H1N1 EC50s) came to 890 nM.

In the case of insulin, the EC50 in the assay with 3T3-L1 adipocytes (dose response AFOD 1 / AFOD RAAS 109, run N1) was 7.08 nM; in the assay with 3T3-L1 adipocytes (dose response AFOD 1 / AFOD RAAS 109, run N2), 8.64 nM; in the assay on 3T3-L1 adipocytes (dose response AFOD RAAS 107 / AFOD KH, run N1), 3.09 nM; in the assay with 3T3-L1 adipocytes (dose response AFOD RAAS 107 / AFOD KH, run N2) it was 10.2 nM; in the assay with 3T3-L1 adipocytes (dose response AFOD RAAS 107 / AFOD KH, run N3) it was 4.17 nM.

Source of the values: patent US20170266266A1, “Functions of 55 Newfound Proteins and Their Medicinal Application in the Treatment and Prevention of Disease” (priority 2012, published 2017).
